This is an account of results in ChEMBL document CHEMBL3817774, “Pterostilbene-mediated Nrf2 activation: Mechanistic insights on Keap1:Nrf2 interface” (Bioorg Med Chem, 2016).

Holding throughout (assay type): cell-based
Test [1] addresses T1, Nuclear factor erythroid 2-related factor 2 (Mus musculus) (UniProt Q60795).
T1 sequence (whole entry): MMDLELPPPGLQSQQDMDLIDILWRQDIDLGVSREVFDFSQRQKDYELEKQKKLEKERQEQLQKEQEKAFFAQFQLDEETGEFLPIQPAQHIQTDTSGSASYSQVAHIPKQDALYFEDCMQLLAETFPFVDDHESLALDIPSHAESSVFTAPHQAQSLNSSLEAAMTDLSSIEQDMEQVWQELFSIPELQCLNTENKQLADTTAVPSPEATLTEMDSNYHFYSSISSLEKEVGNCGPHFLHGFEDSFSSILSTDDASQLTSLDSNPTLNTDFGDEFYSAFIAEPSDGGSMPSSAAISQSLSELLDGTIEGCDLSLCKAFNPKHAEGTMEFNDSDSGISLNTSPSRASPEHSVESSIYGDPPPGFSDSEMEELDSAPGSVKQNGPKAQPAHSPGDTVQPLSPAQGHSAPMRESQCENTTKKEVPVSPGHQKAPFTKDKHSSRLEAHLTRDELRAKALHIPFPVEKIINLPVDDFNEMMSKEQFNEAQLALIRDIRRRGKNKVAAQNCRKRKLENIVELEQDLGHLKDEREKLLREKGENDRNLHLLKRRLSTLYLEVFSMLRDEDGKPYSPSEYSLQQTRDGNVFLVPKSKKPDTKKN
The test is described as follows: Activation of Nrf2 in mouse MIN6 cells assessed as increase in nuclear Nrf2 translocation by Western blot analysis. (In general: In western blotting, separated proteins are transferred to a membrane and probed.)

The target in test [2] is T1, Nuclear factor erythroid 2-related factor 2 (Mus musculus). The test is described as follows: Activation of Nrf2 in mouse MIN6 cells assessed as decrease in cytoplasmic Nrf2 fraction by Western blot analysis.
For test [3] the target is unchanged. Description: Activation of Nrf2 in mouse MIN6 cells assessed as upregulation of human NQO1-ARE-luciferase incubated for 8 hrs by luminometric assay relative to control.
Test [4] has the same target. Description: Activation of Nrf2 in mouse MIN6 cells assessed as upregulation of GST1-ARE-luciferase incubated for 8 hrs by luminometric assay relative to control.
The target of test [5] is T2, Keap1/Nrf2 (Homo sapiens) (UniProt Q16236+Q14145). The test is described as follows: Inhibition of Nrf2-Keap1 (unknown origin) interaction co-expressed in HEK293T cells using D-luciferin as substrate assessed as decrease in luciferase signal intensity incubated for 24 hrs by bioluminescence-based IVIS imaging analysis. As to conditions: HEK-293T.
The target of test [6] is T2, Keap1/Nrf2 (Homo sapiens). The test is described as follows: Inhibition of Nrf2-Keap1 (unknown origin) interaction co-expressed in HEK293T cells using D-luciferin as substrate assessed as decrease in luciferase signal intensity at 0.5 to 10 uM by bioluminescence-based IVIS imaging analysis. To be noted: HEK-293T, TDE = time-dependent effect.

The structures appear in SMILES notation.

T2 sequence (Q14145 whole entry, looked up): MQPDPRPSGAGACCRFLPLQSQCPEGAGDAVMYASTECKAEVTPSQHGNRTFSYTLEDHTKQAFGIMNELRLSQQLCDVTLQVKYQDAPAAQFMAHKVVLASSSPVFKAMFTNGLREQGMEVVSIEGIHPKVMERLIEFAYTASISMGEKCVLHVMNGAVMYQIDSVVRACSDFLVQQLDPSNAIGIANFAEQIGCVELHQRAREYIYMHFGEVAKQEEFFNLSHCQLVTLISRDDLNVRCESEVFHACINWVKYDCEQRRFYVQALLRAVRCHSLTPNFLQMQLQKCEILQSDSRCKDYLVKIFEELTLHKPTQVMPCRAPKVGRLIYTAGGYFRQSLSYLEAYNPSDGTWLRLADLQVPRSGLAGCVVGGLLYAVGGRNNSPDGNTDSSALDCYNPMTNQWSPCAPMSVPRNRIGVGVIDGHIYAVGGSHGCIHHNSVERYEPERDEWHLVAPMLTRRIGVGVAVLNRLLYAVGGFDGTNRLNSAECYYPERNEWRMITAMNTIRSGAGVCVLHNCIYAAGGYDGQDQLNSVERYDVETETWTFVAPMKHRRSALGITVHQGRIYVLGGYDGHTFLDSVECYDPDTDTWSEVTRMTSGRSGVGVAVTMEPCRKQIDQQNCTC
T2 sequence (Q16236 whole entry, looked up): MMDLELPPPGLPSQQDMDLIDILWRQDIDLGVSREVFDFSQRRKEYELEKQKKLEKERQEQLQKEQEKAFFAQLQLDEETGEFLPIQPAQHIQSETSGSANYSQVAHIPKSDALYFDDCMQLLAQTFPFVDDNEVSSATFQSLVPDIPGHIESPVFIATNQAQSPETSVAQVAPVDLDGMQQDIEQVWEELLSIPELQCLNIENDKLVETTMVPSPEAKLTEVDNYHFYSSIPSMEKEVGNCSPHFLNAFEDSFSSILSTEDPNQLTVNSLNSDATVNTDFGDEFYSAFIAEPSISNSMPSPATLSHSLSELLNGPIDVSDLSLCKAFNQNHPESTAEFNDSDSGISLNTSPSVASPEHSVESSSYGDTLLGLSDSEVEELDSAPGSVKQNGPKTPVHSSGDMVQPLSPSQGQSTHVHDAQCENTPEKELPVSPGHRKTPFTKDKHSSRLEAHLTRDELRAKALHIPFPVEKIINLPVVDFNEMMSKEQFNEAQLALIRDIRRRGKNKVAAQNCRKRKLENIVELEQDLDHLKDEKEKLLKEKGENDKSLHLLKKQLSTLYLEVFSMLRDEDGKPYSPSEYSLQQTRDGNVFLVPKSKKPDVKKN

Turning to `COc1cc(/C=C/c2ccc(O)cc2)cc(OC)c1`, the Activity result in test [1], in test [2], in test [3] and in test [4] was “Dose-dependent effect” throughout. Besides, the fold change (FC) in test [3] and in test [4] was 2 throughout. For the same molecule, the figures for the inhibition entry in test [5] and in test [6] were “Dose-dependent effect” and “tde”, respectively.
